Assay results reported in patent publication US12065430B2, “Indazole compound or salt thereof” (TAIHO PHARMACEUTICAL CO., LTD., priority 2018, dated 2024).

Target: G12C K-Ras4B (1-169) (Homo sapiens (Human), UniProt P01116, G12C)
Test: Test of compounds on whether to bind to KRASG12C (LC-MS compound binding rate)
Conditions: final compound concentration of 2 μM, 1 μM protein, 25° C. for 2 hours
Outline: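 K-Ras4B (1-169) WT and G12C (1 μM each, mixed) in 1×TBS, 0.1 mM TCEP incubated with compound (final 2 μM) 2 h at 25° C; quenched with 0.2% formic acid. Intact-protein LC-MS (ESI+, deconvoluted); binding rate = adduct signal/(adduct + unbound signal), giving selectivity over WT.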

| SMILES | binding rate for G12C K-Ras4B (1-169) |
| --- | --- |
| C=CC(=O)N1CC(NC(=O)c2c(C(F)F)nc(CNc3n[nH]c4cc(Cl)c(C(C)(C)C)cc34)n2C2CCN(C)C2)C1 (stereo not drawn) [Example 91, N-(1-acryloylazetidin-3-yl)-2-(((5-(tert-butyl)-6-chloro-1H-indazol-3-yl)amino)methyl)-4-(difluoromethyl)-1-(1-methylpyrrolidin-3-yl)-1H-imidazole-5-carboxamide] | A (a binding rate of 80% or more is rated “A,”) |
| C=CC(=O)N1CC(NC(=O)c2c(C(F)F)nc(CNc3n[nH]c4cc(Cl)c(C(C)(C)C)cc34)n2C2CCN(CC)C2)C1 (stereo not drawn) [Example 92, N-(1-acryloylazetidin-3-yl)-2-(((5-(tert-butyl)-6-chloro-1H-indazol-3-yl)amino)methyl)-4-(difluoromethyl)-1-(1-ethylpyrrolidin-3-yl)-1H-imidazole-5-carboxamide] | B (a binding rate of 60% or more and less than 80% is rated “B,”) |
| C=CC(=O)N1CC(NC(=O)c2c(Cl)nc(CNc3n[nH]c4cc(Cl)c(C(C)(C)C)cc34)n2-c2ccccn2)C1 [Example 94, N-(1-acryloylazetidin-3-yl)-2-(((5-(tert-butyl)-6-chloro-1H-indazol-3-yl)amino)methyl)-4-chloro-1-(pyridin-2-yl)-1H-imidazole-5-carboxamide] | B (a binding rate of 60% or more and less than 80% is rated “B,”) |
| C=CC(=O)N1CC(NC(=O)c2c(C(F)F)nc(CNc3n[nH]c4cc(Cl)c(C(C)(C)C)cc34)n2CC2CCCN2C(C)C)C1 (stereo not drawn) [Example 95, N-(1-acryloylazetidin-3-yl)-2-(((5-(tert-butyl)-6-chloro-1H-indazol-3-yl)amino)methyl)-4-(difluoromethyl)-1-((1-isopropylpyrrolidine-2-yl)methyl)-1H-imidazole-5-carboxamide] | A (a binding rate of 80% or more is rated “A,”) |
| C=CC(=O)N1CC(NC(=O)c2c(C(F)F)nc(CNc3n[nH]c4cc(Cl)c(C(C)(C)C)cc34)n2C2CCN(C(C)=O)C2)C1 (stereo not drawn) [Example 96, 1-(1-Acetylpyrrolidin-3-yl)-N-(1-acryloylazetidin-3-yl)-2-(((5-(tert-butyl)-6-chloro-1H-indazol-3-yl)amino)methyl)-4-(difluoromethyl)-1H-imidazole-5-carboxamide] | A (a binding rate of 80% or more is rated “A,”) |
| C=CC(=O)N1CC(NC(=O)c2c(Cl)nc(CNc3n[nH]c4cc(Cl)c(C(C)(C)C)cc34)n2C2CC=CC2)C1 [Example 98, N-(1-acryloylazetidin-3-yl)-2-(((5-(tert-butyl)-6-chloro-1H-indazol-3-yl)amino)methyl)-4-chloro-1-(cyclopent-3-en-1-yl)-1H-imidazole-5-carboxamide] | A (a binding rate of 80% or more is rated “A,”) |
| C=CC(=O)N1CC(NC(=O)c2c(Cl)nc(CNc3n[nH]c4cc(Cl)c(C(C)(C)C)cc34)n2[C@@H]2C[C@@H](O)[C@@H](O)C2)C1 [Example 99] | A (a binding rate of 80% or more is rated “A,”) |
| C=CC(=O)N1CC(NC(=O)c2c(Cl)nc(CNc3n[nH]c4cc(Cl)c(C(C)(C)C)cc34)n2CC(F)F)C1 [Example 100, N-(1-acryloylazetidin-3-yl)-2-(((5-(tert-butyl)-6-chloro-1H-indazol-3-yl)amino)methyl)-4-chloro-1-(2,2-difluoroethyl)-1H-imidazole-5-carboxamide] | A (a binding rate of 80% or more is rated “A,”) |
| C=CC(=O)N1CC(NC(=O)c2c(Cl)nc(CNc3n[nH]c4cc(Cl)c(C(C)(C)C)cc34)n2C2CN(C(C)=O)C2)C1 [Example 108, 1-(1-acetylazetidin-3-yl)-N-(1-acryloylazetidin-3-yl)-2-(((5-(tert-butyl)-6-chloro-1H-indazol-3-yl)amino)methyl)-4-chloro-1H-imidazole-5-carboxamide] | A (a binding rate of 80% or more is rated “A,”) |
| C=CC(=O)N1CC(NC(=O)c2c(Cl)nc(CNc3n[nH]c4cc(Cl)c(C(C)(C)C)cc34)n2C2CCCCC2)C1 [Example 109, N-(1-acryloylazetidin-3-yl)-2-(((5-(tert-butyl)-6-chloro-1H-indazol-3-yl)amino)methyl)-4-chloro-1-cyclohexyl-1H-imidazole-5-carboxamide] | B (a binding rate of 60% or more and less than 80% is rated “B,”) |
| C=CC(=O)N1CC(NC(=O)c2c(Cl)nc(CNc3n[nH]c4cc(Cl)c(C(C)(C)C)cc34)n2CC2CCCC2)C1 [Example 110, N-(1-acryloylazetidin-3-yl)-2-(((5-(tert-butyl)-6-chloro-1H-indazol-3-yl)amino)methyl)-4-chloro-1-(cyclopentylmethyl)-1H-imidazole-5-carboxamide] | A (a binding rate of 80% or more is rated “A,”) |
| C=CC(=O)N1CC(NC(=O)c2c(Cl)nc(CNc3n[nH]c4cc(Cl)c(C(C)(C)C)cc34)n2[C@H]2C[C@H](C)CC[C@H]2C(C)C)C1 [Example 111, N-(1-acryloylazetidin-3-yl)-2-(((5-(tert-butyl)-6-chloro-1H-indazol-3-yl)amino)methyl)-4-chloro-1-((1S,2S,5R)-2-isopropyl-5-methylcyclohexyl)-1H-imidazole-5-carboxamide] | B (a binding rate of 60% or more and less than 80% is rated “B,”) |
| C=CC(=O)N1CC(NC(=O)c2c(Cl)nc(CNc3n[nH]c4cc(Cl)c(C(C)(C)C)cc34)n2[C@@H]2CCN(CC(F)F)C2)C1 [Example 113, (R)—N-(1-acryloylazetidin-3-yl)-2-(((5-(tert-butyl)-6-chloro-1H-indazol-3-yl)amino)methyl)-4-chloro-1-(1-(2,2-difluoroethyl)pyrrolidin-3-yl)-1H-imidazole-5-carboxamide] | A (a binding rate of 80% or more is rated “A,”) |
| C=CC(=O)N1CC(NC(=O)c2c(Cl)nc(CNc3n[nH]c4cc(Cl)c(C(C)(C)C)cc34)n2[C@H]2CCN(CC(F)F)C2)C1 [Example 115, (S)—N-(1-acryloylazetidin-3-yl)-2-(((5-(tert-butyl)-6-chloro-1H-indazol-3-yl)amino)methyl)-4-chloro-1-(1-(2,2-difluoroethyl)pyrrolidin-3-yl)-1H-imidazole-5-carboxamide] | A (a binding rate of 80% or more is rated “A,”) |
| C=CC(=O)N1CC(NC(=O)c2c(Cl)nc(CNc3n[nH]c4cc(Cl)c(C(C)(C)C)cc34)n2[C@H]2CCN(C(C)C)C2)C1 [Example 116, (S)—N-(1-acryloylazetidin-3-yl)-2-(((5-(tert-butyl)-6-chloro-1H-indazol-3-yl)amino)methyl)-4-chloro-1-(1-isopropylpyrrolidin-3-yl)-1H-imidazole-5-carboxamide] | B (a binding rate of 60% or more and less than 80% is rated “B,”) |
| C=CC(=O)N1CC(NC(=O)c2c(Cl)nc(CNc3n[nH]c4cc(Cl)c(C(C)(C)C)cc34)n2C2CCCN(CC(F)F)C2)C1 (stereo not drawn) [Example 117, N-(1-acryloylazetidin-3-yl)-2-(((5-(tert-butyl)-6-chloro-1H-indazol-3-yl)amino)methyl)-4-chloro-1-(1-(2,2-difluoroethyl)piperidin-3-yl)-1H-imidazole-5-carboxamide] | A (a binding rate of 80% or more is rated “A,”) |
| C=CC(=O)N1CC(NC(=O)c2c(Cl)nc(CNc3n[nH]c4cc(Cl)c(C(C)(C)C)cc34)n2C2CCCN(C)C2)C1 (stereo not drawn) [Example 118, N-(1-acryloylazetidin-3-yl)-2-(((5-(tert-butyl)-6-chloro-1H-indazol-3-yl)amino)methyl)-4-chloro-1-(1-methylpiperidin-3-yl)-1H-imidazole-5-carboxamide] | A (a binding rate of 80% or more is rated “A,”) |
| C=CC(=O)N1CC(NC(=O)c2c(Cl)nc(CNc3n[nH]c4cc(Cl)c(C(C)(C)C)cc34)n2[C@@H]2CCN(CCOC)C2)C1 [Example 119, (R)—N-(1-acryloylazetidin-3-yl)-2-(((5-(tert-butyl)-6-chloro-1H-indazol-3-yl)amino)methyl)-4-chloro-1-(1-(2-methoxyethyl)pyrrolidin-3-yl)-1H-imidazole-5-carboxamide] | B (a binding rate of 60% or more and less than 80% is rated “B,”) |
| C=CC(=O)N1CC(NC(=O)c2c(Cl)nc(CNc3n[nH]c4cc(Cl)c(C(C)(C)C)cc34)n2[C@@H]2CCN(C3CC3)C2)C1 [Example 120, (R)—N-(1-acryloylazetidin-3-yl)-2-(((5-(tert-butyl)-6-chloro-1H-indazol-3-yl)amino)methyl)-4-chloro-1-(1-cyclopropylpyrrolidin-3-yl)-1H-imidazole-5-carboxamide] | A (a binding rate of 80% or more is rated “A,”) |
| C=CC(=O)N1CC(NC(=O)c2c(Cl)nc(CNc3n[nH]c4cc(Cl)c(C(C)(C)C)cc34)n2[C@@H]2CCN(C3COC3)C2)C1 [Example 121, (R)—N-(1-acryloylazetidin-3-yl)-2-(((5-(tert-butyl)-6-chloro-1H-indazol-3-yl)amino)methyl)-4-chloro-1-(1-(oxetan-3-yl)pyrrolidin-3-yl)-1H-imidazole-5-carboxamide] | A (a binding rate of 80% or more is rated “A,”) |
| C=CC(=O)N1CC(NC(=O)c2c(Cl)nc(CNc3n[nH]c4cc(Cl)c(C(C)(C)C)cc34)n2[C@@H]2CCN(Cc3ccccc3)C2)C1 [Example 122, (R)—N-(1-acryloylazetidin-3-yl)-1-(1-benzylpyrrolidin-3-yl)-2-(((5-(tert-butyl)-6-chloro-1H-indazol-3-yl)amino)methyl)-4-chloro-1H-imidazole-5-carboxamide] | A (a binding rate of 80% or more is rated “A,”) |
